Each structure is given as a SMILES string.

What all share (type): cell-based
One assay concerns the target T1, human V1aR (Homo sapiens, UniProt P37288).
T1 construct: expressed in transfected cells
In words: Inhibition activity on human V1aR (Fluo-4 calcium assay, HEK293/human V1aR stably transfected cells, vasopressin 3 nM). As to conditions: calcium signal. On the procedure:
The inhibition effect of the compounds of the present invention on the activity of human V1aR protein expressed in HEK293/human V1aR stably transfected cells was determined by the following experimental method:
The pcDNA3.1-V1aR plasmid was transferred into HEK293 cells with the Lipofectamine® 3000 transfection reagent; G418 was added on the next day to screen, and monoclonal cell lines were selected.
(§1) HEK293/human V1aR stably transfected cells were inoculated in a 96-well plate with an inoculation density of 25,000 cells/well one day in advance. On the next day, a loading buffer containing Fluo-4 dye was formulated using the reagents in the Fluo-4 NW calcium assay kit, and the culture medium was then removed; 100 μl of the loading buffer containing Fluo-4 dye were added to each well, and the plate was incubated at 37° C. for 30 minutes. After that, the plate was moved to room temperature and equilibrated for 10 minutes. The compounds were formulated into concentration gradients of 10^6, 10^5, 10^4, 10^3, 10^2 and 10^1 nM. 1 μl of the compounds in each concentration was added to each well, and the plate was incubated at room temperature for 10 minutes. […] IC50 values of the compounds were calculated by Graphpad prism software using fluorescence signals corresponding to different concentrations.
The inhibition activity of the compounds of the present invention on human V1aR was determined by the above test, and the obtained IC50 values are shown in Table 2.

Another assay concerns the target T2, human V1bR (Homo sapiens, UniProt P47901).
T2 construct: expressed in transfected cells; host or cells: HEK293 (G418-selected pool)
T2 sequence (P47901 1-424): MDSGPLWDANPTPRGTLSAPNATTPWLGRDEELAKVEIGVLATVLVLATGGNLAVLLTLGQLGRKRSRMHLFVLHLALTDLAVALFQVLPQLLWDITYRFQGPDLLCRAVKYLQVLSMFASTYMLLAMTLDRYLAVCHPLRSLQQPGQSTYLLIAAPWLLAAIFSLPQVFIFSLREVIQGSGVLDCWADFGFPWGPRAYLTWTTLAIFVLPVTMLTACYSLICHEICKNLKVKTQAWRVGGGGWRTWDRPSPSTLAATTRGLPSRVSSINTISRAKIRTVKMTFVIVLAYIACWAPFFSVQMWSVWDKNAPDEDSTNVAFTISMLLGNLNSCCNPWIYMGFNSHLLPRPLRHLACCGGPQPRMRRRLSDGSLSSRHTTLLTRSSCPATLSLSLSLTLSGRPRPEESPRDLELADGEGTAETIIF
In words: Inhibition activity on human V1bR (Fluo-4 calcium assay, HEK293/human V1bR pool cells, vasopressin 3 nM). To be noted: calcium signal. As for the experimental part: The inhibition effect of the compounds of the present invention on the activity of human V1bR protein expressed in HEK293/human V1bR cells was determined by the following experimental method:
The pcDNA3.1-V1bR plasmid was transferred into HEK293 cells with the Lipofectamine® 3000 transfection reagent; G418 was added on the next day, and the HEK293/human V1bR pool cell lines were obtained.
as §1, with “V1bR pool” for “V1aR stably transfected”

In a further assay the target is T3, human V2R (Homo sapiens, UniProt P30518).
T3 construct: expressed in transfected cells; host or cells: HEK293 (G418-selected pool)
In words: Inhibition activity on human V2R (cAMP HTRF assay, HEK293/human V2R pool cells, vasopressin). As for the experimental part: The inhibition effect of the compounds of the present invention on the activity of human V2R protein expressed in HEK293/human V2R cells was determined by the following experimental method:
The pcDNA3.1-V2R plasmid was transferred into HEK293 cells with the Lipofectamine® 3000 transfection reagent; G418 was added on the next day, and the HEK293/human V2R pool cell lines were obtained.
HEK293/human V2R pool cells were digested with the cell dissociation solution (enzyme-free), thereby dissociating the cells from the cell culture dish into individual cells. After completion, the cell solution was blown well, and centrifuged to remove the supernatant. The cells were re-suspended in the test buffer 1 (1×HBSS+20 mM HEPES+0.1% BSA) and counted. The cell density was adjusted to 1250 cells/5 μl, i.e., 2.5*10^5/ml.
The compounds were formulated into a series of concentrations of 20 mM, 6.67 mM, 2.22 mM, 0.74 mM, 0.25 mM, 0.08 mM, 27.4 μM, 9.14 μM, 3.05 μM, 1.02 μM, 0.34 μM and 0 μM (DMSO) with pure DMSO. The compounds were then formulated into a 4-fold use concentration with the test buffer 2 (test buffer 1+1 mM IBMX).
Agonist: 460 μM vasopressin was used as the mother liquor, formulated as a 2 μM solution with DMSO, which was then diluted to a 0.5 nM solution with the test buffer 2.
Standard: The first point was 20 μl of a stock solution (2848 nM), which was diluted successively to a total of eleven concentrations in a 4-fold concentration gradient with the test buffer 1 from the second point.
1. The well-mixed cells were added to a 384-well plate (5 μl/well) without changing the tip.
2. The test compounds and positive compound formulated were added (2.5 μl/well), and the tips were changed.
3. The plate was centrifuged at 1000 rpm for 1 min, shaken for 30 sec to mix well, and incubated at room temperature for 30 min.
4. The standard curve wells were added with the test buffer 2 (5 μl/well).
5. The agonist formulated was added (2.5 μl/well), and the tips were changed; the plate was centrifuged at 1000 rpm for 1 min, shaken for 30 sec to mix well, and incubated at room temperature for 30 min.
6. cAMP-d2 (a component in the cAMP dynamic 2 kit) and Anti-cAMP-Eu-Cryptate (a component in the cAMP dynamic 2 kit) were formulated in the dark, which were then mixed well with cAMP lysate (a component in the cAMP dynamic 2 kit) in a ratio of 1:4. Each well was added with the formulated cAMP-d2 solution (5 μl/well), followed by addition of Anti-cAMP-Eu-Cryptate (5 μl/well). The plate was shaken for 30 sec to mix well, and incubated in the dark at room temperature for 1 h.
4) Plate reading: The HTRF signals were read by the PheraStar multi-function microplate reader.
The data in this test was processed using the data processing software Graphpad Prism.
The inhibition activity of the compounds of the present invention on human V2R was determined by the above test, and the obtained IC50 values are shown in Table 4.

T3 sequence (P30518 whole entry): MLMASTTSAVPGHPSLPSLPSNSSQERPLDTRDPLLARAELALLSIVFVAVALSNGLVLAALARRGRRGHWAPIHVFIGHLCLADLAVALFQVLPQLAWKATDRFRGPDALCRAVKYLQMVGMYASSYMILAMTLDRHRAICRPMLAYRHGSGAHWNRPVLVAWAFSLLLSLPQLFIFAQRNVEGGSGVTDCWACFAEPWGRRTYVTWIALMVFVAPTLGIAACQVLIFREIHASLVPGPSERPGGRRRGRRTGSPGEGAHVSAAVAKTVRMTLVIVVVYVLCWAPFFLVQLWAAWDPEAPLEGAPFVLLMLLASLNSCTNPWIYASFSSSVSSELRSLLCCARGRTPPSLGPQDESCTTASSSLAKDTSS
T1 sequence (P37288 whole entry): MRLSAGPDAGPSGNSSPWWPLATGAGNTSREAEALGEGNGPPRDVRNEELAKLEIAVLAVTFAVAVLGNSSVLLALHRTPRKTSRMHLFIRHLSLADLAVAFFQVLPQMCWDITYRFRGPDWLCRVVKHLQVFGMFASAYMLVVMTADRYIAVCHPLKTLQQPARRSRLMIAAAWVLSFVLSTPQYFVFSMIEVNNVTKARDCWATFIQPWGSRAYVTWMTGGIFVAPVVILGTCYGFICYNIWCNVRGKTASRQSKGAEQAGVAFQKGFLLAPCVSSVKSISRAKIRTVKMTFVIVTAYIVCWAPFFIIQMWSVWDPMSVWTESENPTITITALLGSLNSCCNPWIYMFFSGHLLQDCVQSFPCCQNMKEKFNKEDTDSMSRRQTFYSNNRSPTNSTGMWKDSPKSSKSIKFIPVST

Turning to `COc1ccc(-n2c(COCCF)nnc2N2C[C@@H]3C[C@]3(c3ccc(F)cc3Cl)C2)cn1` [Example 1, (1S,5R)-1-(2-Chloro-4-fluorophenyl)-3-(5-((2-fluoroethoxy)methyl)-4-(6-methoxypyridin-3-yl)-4H-1,2,4-triazol-3-yl)-3-azabicyclo[3.1.0]hexane], the 50% inhibitory concentration (IC50) (in general, the point on the concentration scale where inhibition reaches its midpoint) on human V1aR stood at 1 µM; on human V1bR, 24.5 µM; against human V2R, 21.4 µM.

Consider `COCc1nnc(N2C[C@@H]3C[C@]3(c3ccc(F)cc3Cl)C2)n1-c1ccc(OC)nc1` [Example 9, (1S,5R)-1-(2-Chloro-4-fluorophenyl)-3-(5-(methoxymethyl)-4-(6-methoxypyridin-3-yl)-4H-1,2,4-triazol-3-yl)-3-azabicyclo[3.1.0]hexane], for which the IC50 at human V1aR is 2.9 µM; on human V1bR, 37.6 µM; against human V2R it was 32.6 µM.

With `COc1ccc(-n2c(N3C[C@@H]4C[C@]4(c4ccc(F)cc4Cl)C3)nnc2C(F)(F)F)cn1` [Example 12, (1S,5R)-1-(2-Chloro-4-fluorophenyl)-3-(4-(6-methoxypyridin-3-yl)-5-(trifluoromethyl)-4H-1,2,4-triazol-3-yl)-3-azabicyclo[3.1.0]hexane], the half-inhibitory concentration (IC50) on human V1aR came out at 3.6 µM; at human V1bR it was 11.7 µM; at human V2R, 29.5 µM.

As to `CCOCc1nnc(N2C[C@@H]3C[C@]3(c3ccc(F)cc3Cl)C2)n1-c1ccc(OC)nc1` [Example 6, (1S,5R)-1-(2-Chloro-4-fluorophenyl)-3-(5-(ethoxymethyl)-4-(6-methoxypyridin-3-yl)-4H-1,2,4-triazol-3-yl)-3-azabicyclo[3.1.0]hexane], the concentration for half-maximal inhibition (IC50) was 1.7 µM on human V1aR, 27.9 µM on human V1bR and 7.3 µM against human V2R.

In the case of `COCc1nnc(N2C[C@@H]3C[C@]3(c3cccc(F)c3Cl)C2)n1-c1ccc(OC)nc1` [Example 4, (1S,5R)-1-(2-Chloro-3-fluorophenyl)-3-(5-(methoxymethyl)-4-(6-methoxypyridin-3-yl)-4H-1,2,4-triazol-3-yl)-3-azabicyclo[3.1.0]hexane], the 50% inhibitory concentration (IC50) at human V1aR was found to be 3.8 µM; on human V1bR, 59.4 µM; against human V2R, 25.7 µM.

For the origin of these results see US20210040073A1, “AZABICYCLO-SUBSTITUTED TRIAZOLE DERIVATIVE, PREPARATION METHOD THEREOF, AND APPLICATION OF SAME IN MEDICINE” (Jiangsu Hengrui Medicine Co., Ltd., priority 2016, published 2021).
